“Also recorded” adds a separate entry of the source. Read-outs that look alike come from different tables or passages of the source.
How the values were obtained:
FLJ35914-derived protein = molecular target: T1, FLJ35914-derived protein (Homo sapiens, UniProt Q9HB65, DEL362-362); experiment: SEC/MS interaction analysis, FLJ35914-derived protein (ELL3); format: binding; conditions: TSKgel super SW2000 micro-LC column (1.0 mm ID×30 mm); presence vs absence of protein; data not shown
T1 construct: His-tag (N); made in house; host or cells: Escherichia coli BL21star(DE3)pLysS
T1 sequence (Q9HB65 with tags, fused parts or gaps DEL362-362): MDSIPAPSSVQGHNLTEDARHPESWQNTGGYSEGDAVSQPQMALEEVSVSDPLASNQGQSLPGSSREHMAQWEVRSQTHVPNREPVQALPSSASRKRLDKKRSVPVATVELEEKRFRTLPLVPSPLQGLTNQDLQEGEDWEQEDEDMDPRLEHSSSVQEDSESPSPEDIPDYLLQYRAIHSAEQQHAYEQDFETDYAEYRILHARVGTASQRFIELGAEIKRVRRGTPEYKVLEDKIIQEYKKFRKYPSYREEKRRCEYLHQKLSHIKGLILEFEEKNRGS
Description: (§1) The specific procedures are shown below.

FLJ36526-derived protein = molecular target: T2, FLJ36526-derived protein (Homo sapiens, UniProt Q9UNZ2, D290N/L361F); experiment: SEC/MS interaction analysis, FLJ36526-derived protein (NSFL1 (p97) cofactor (p47)); format: binding; conditions: TSKgel super SW2000 micro-LC column (1.0 mm ID×30 mm); presence vs absence of protein; data not shown
T2 construct: His-tag (N); made in house; host or cells: Escherichia coli BL21star(DE3)pLysS
T2 sequence (Q9UNZ2 1-370 D290N/L361F): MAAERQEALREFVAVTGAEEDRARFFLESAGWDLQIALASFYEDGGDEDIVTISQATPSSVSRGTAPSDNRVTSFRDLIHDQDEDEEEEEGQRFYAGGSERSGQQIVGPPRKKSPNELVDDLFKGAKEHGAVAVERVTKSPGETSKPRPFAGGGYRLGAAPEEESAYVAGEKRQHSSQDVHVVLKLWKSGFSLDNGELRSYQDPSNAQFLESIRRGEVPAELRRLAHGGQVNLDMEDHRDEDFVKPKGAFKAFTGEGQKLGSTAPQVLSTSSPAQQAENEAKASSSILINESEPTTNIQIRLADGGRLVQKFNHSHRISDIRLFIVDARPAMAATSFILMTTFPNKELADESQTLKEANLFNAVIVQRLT
Description: as §1

FLJ39553-derived protein = molecular target: T3, FLJ39553-derived protein (Homo sapiens, UniProt Q6P6B1, N326S); experiment: SEC/MS interaction analysis, FLJ39553-derived protein (hypothetical protein FLJ39553); format: binding; conditions: TSKgel super SW2000 micro-LC column (1.0 mm ID×30 mm); presence vs absence of protein; data not shown
T3 construct: His-tag (N); made in house; host or cells: Escherichia coli BL21star(DE3)pLysS
T3 sequence (Q6P6B1 1-374 N326S): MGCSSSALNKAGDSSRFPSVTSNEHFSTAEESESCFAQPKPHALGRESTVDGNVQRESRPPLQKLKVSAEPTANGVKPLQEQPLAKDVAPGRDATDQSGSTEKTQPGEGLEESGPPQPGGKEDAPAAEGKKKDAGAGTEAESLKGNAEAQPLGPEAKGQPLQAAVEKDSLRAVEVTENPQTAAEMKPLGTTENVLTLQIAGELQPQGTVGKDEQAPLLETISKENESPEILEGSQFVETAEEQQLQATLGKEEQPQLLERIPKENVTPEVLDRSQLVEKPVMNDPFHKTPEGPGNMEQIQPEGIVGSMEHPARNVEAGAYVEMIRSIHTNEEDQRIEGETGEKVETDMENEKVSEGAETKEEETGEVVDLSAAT
Description: (§2) To analyze the interactions between commonly used drugs and proteins expressed from human full-length cDNA clones while keeping both the proteins and the compounds in non-modified, non-immobilized state, size exclusion chromatography (SEC) and mass analysis were used in combination. The specific procedures are shown below.
(§3) The compound-protein mixture prepared in step 1 was subjected to chromatography using an SEC column, the compound and the protein were separated by SEC, and the compound that interacted with the bound compound or protein contained in the protein fraction was analyzed using a mass analyzer.
(§4) Protein concentrations were measured using BCA Protein Assay (PIERCE), in consideration of the purity calculated by SDS-PAGE.
Mass analysis was performed using LCQ DECA XP (Thermoelectron) or Q-TOF micro (Micromass), equipped with an ESI probe. […]
In the 384-well spin column method, Unifilter 100 (Whatman), packed with 10 μL (dry volume) of Bio-Gel P6 (BIO-RAD) and swollen with milliQ water, was used as the SEC column. […] 2-μL of mass analysis samples were injected using an autosampler at 2-minute intervals; the mass spectral intensity of the compound was measured to retrieve the spectral intensity of the pharmaceutical compound contained in the SEC spin column filtrate (protein fraction eluted from SEC).

[1] = tested on: FLJXXXXX-derived proteins; experiment: SEC/MS spin column interaction analysis of FLJXXXXX-derived proteins and various compounds (Tables 30-1 to 30-4); format: binding, human
FLJ38531-derived protein [2] = molecular target: T4, FLJ38531-derived protein (Homo sapiens, UniProt Q9BVM4); experiment: SEC/MS interaction analysis, FLJ38531-derived protein (hypothetical protein BC004360); format: binding
T4 construct: His-tag (N); made in house; host or cells: Escherichia coli BL21star(DE3)pLysS
T4 sequence (Q9BVM4 1-153): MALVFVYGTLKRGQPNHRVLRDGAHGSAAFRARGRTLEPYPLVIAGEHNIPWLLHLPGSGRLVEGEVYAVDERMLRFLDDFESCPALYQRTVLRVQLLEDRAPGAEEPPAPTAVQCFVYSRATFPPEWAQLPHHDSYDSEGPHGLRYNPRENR
Description: as §2, §3, §4
Mass analysis was performed using LCQ DECA XP (Thermoelectron) or Q-TOF micro (Micromass), equipped with an ESI probe. The LC pump used was Agilent 1100 (Yokogawa Analytical Systems), and the autosampler used was HTC-PAL (CTC Analytics) equipped with a cooling stacker. The SEC column used was a micro-LC column or a 384-well spin column. […]
In the 384-well spin column method, Unifilter 100 (Whatman), packed with 10 μL (dry volume) of Bio-Gel P6 (BIO-RAD) and swollen with milliQ water, was used as the SEC column. […] The SEC spin column was mounted on an acetonitrile-aliquoted 384-well U-bottom plate and centrifuged; the SEC spin column filtrate, which is a protein fraction, was recovered in 50% acetonitrile. The protein precipitate produced by the acetonitrile was removed via centrifugation and filtration for deproteinization; the resulting filtrate was concentrated by centrifugal concentration and re-dissolved in 10 μL of 50% methanol to obtain a mass analysis sample. The mobile phase supplied to the mass analyzer was 0.1% formic acid/50% methanol solution in the positive ion mode, and 0.1% ammonia/50% methanol solution in the negative ion mode; these mobile phases were used at a flow rate of 40 μL/min. 2-μL of mass analysis samples were injected using an autosampler at 2-minute intervals; the mass spectral intensity of the compound was measured to retrieve the spectral intensity of the pharmaceutical compound contained in the SEC spin column filtrate (protein fraction eluted from SEC).

FLJ38531-derived protein [3] = molecular target: T4, FLJ38531-derived protein; experiment: Biacore dissociation constant (KD) measurement, FLJ38531-derived protein; format: binding; conditions: FLJ38531-derived protein (SEQ ID NO 13)
Description: This washing operation was repeated as required.

spectrum intensity of the compound in the SEC spin column filtrate (FLJ38531-derived protein [2]; compound 12.5 μM, protein 0 μM)	spectrum intensity of the compound in the SEC spin column filtrate (FLJ38531-derived protein [2]; compound 12.5 μM, protein 5 μM)	spectrum intensity of the compound in the SEC spin column filtrate (FLJ38531-derived protein [2]; compound 12.5 μM, protein 10 μM)	spectrum intensity of the compound in the SEC spin column filtrate (FLJ38531-derived protein [2]; compound 12.5 μM, protein 25 μM)	spectrum intensity of the compound in the SEC spin column filtrate (FLJ38531-derived protein [2]; compound 25 μM, protein 0 μM)	spectrum intensity of the compound in the SEC spin column filtrate (FLJ38531-derived protein [2]; compound 25 μM, protein 5 μM)	spectrum intensity of the compound in the SEC spin column filtrate (FLJ38531-derived protein [2]; compound 25 μM, protein 10 μM)	spectrum intensity of the compound in the SEC spin column filtrate (FLJ38531-derived protein [2]; compound 25 μM, protein 25 μM)	spectrum intensity of the compound in the SEC spin column filtrate (FLJ38531-derived protein [2]; compound 62.5 μM, protein 0 μM)	spectrum intensity of the compound in the SEC spin column filtrate (FLJ38531-derived protein [2]; compound 62.5 μM, protein 5 μM)	spectrum intensity of the compound in the SEC spin column filtrate (FLJ38531-derived protein [2]; compound 62.5 μM, protein 10 μM)	spectrum intensity of the compound in the SEC spin column filtrate (FLJ38531-derived protein [2]; compound 62.5 μM, protein 25 μM)	interaction judged from spectrum intensity of the compound in the SEC spin column filtrate (protein fraction eluted from SEC) (FLJ38531-derived protein [2]; spin column method, doses of both compound and protein varied)	Kd (FLJ38531-derived protein [3])	Structure (SMILES)	interaction judged from mass chromatogram of the compound (elution from SEC micro-LC column) (FLJ35914-derived protein)	interaction judged from mass chromatogram of the compound (elution from SEC micro-LC column) (FLJ36526-derived protein)	interaction judged from mass chromatogram of the compound (elution from SEC micro-LC column) (FLJ39553-derived protein)	FLJ No of the derived protein with which the compound was judged to exhibit a concentration-dependent interaction [1]	FLJ No of the derived protein with which the compound was judged to exhibit a concentration-dependent interaction ([1]; SEC spin column filtrate, spectral intensity increased with doses of compound and protein)
														C/C1=C2N=C(/C=C3N=C(/C(C)=C4\[N-][C@@](C)([C@@H]5N=C1[C@](C)(CCC(=O)NC[C@@H](C)OP(=O)([O-])O[C@H]1[C@@H](O)[C@@H](n6cnc7cc(C)c(C)cc76)O[C@@H]1CO)[C@H]5CC(N)=O)[C@@](C)(CC(N)=O)[C@@H]4CCC(N)=O)[C@@](C)(CC(N)=O)[C@@H]\3CCC(N)=O)C(C)(C)[C@@H]/2CCC(N)=O.[Co+3].[OH-] [hydroxocobalamin]	there was an interaction	there was an interaction	there was an interaction	FLJ35914; also recorded: FLJ36526; also recorded: FLJ39553	
59203	261679	686531	2048630	53384	401351	946518	2600573	179387	688076	1418687	3155516	concentration-dependent interaction	8.9 µM	O=C(O)c1cc(/N=N/c2ccc(S(=O)(=O)Nc3ccccn3)cc2)ccc1O [sulfasalazine]					FLJ38531
